# Results taken from US20110257146A1, “Method of Treating Kcnq Related Disorders Using Organozinc Compounds” (The johns Hopkins University, priority 2006, published 2011).
# “Also recorded” adds a separate entry of the source.
# Legend:
# KCNQ3 = target: T1, KCNQ3 (Rattus norvegicus, UniProt O88944); experiment: Whole-cell voltage clamp of CHO cells expressing KCNQ3; type: cell-based; conditions: 10 μM ZnPy
# T1 construct: expressed in transfected cells; host or cells: CHO cells
# Protocol: (§1) Cell culture and transient transfection—Chinese Hamster Ovary (CHO) cells were grown in 50/50 DMEM/F12 (Cellgro) with 10% FBS (Gibco), 100 U/ml penicillin (Cellgro), 100 μg/ml streptomycin (Cellgro) and 2 mM L-glutamine (Gibco). At 24 hours before transfection, cells were split and plated in 60 mm dishes and were transfected with Lipofectamine2000™ reagent (Invitrogen) according to the manufacturer's instruction. At 24 hours after transfection, cells were split and re-plated onto coverslips coated with poly-L-lysine (Sigma). Plasmid expressing CD4 cDNA as a marker was cotransfected with the channel cDNAs of hKCNQ1 (from Dr. Michael Sanguinetti), hKCNQ4 (from Dr. Vitya Vardanyan), rKCNQ2, rKCNQ3, and hKCNQ5 (from Drs. David McKinnon, Mark Shapiro, and Thomas Jentsch). Prior to recording, anti-CD4 Dynabeads (Dynal. Biotech. Inc.) were added into the medium to allow for identification of the transfected cells. […]
# (§2) Electrophysiological Recording—Standard whole-cell recording was used. […] Current and voltage were recorded using an Axopatch-200A amplifier, filtered at 1 kHz and digitized using a DigiData 1322A with pClamp 9.2 software (Axon Instruments, Foster City, Calif.). […]
# Data and Statistical Analysis—Patch-clamp data were preprocessed using Clampfit 9.2 (Axon Instruments, Foster City, Calif.) and then analyzed in Origin 7 (OriginLab, Northampton, Mass.). […]
# KCNQ2(R207W) = target: T2, KCNQ2(R207W) (Rattus norvegicus, UniProt O88943, R207W); experiment: Whole-cell recording of KCNQ2(R207W) BFNC mutant in CHO cells; type: cell-based; conditions: 10 μM ZnPy
# T2 construct: expressed in transfected cells; host or cells: CHO cells, transient
# Protocol: FIG. 11. ZnPy effects on BFNC mutant channels expressed in CHO cells. A. whole-cell currents of KCNQ2(R207W), KCNQ2(Y284C), and KCNQ2(A306T) were recorded in the absence (left) and presence (right) of 10 μM ZnPy, Vh was −80 mV, in 10 mV voltage steps from −70 mV to +50 mV. B. a histogram plotting potentiation effects on KCNQ2 wild type (wt) and BFNC mutants (R207W, Y284C and […]) by ZnPy (filled box) and retigabine (open box) (n≧4, * p<0.001, ** p<0.05).
# (§3) Mutagenesis—Starting from KCNQ cDNAs, the KCNQ2 point mutants were constructed by recombinant PCR and verified by sequencing.
# Electrophysiological Recording—Standard whole-cell recording was used. Pipettes were pulled from borosilicate glass capillaries (TW150-4, World Precision Instruments, Sarasota, Fla.). When filled with the intracellular solution, the pipettes have resistances of […]. During the recording, constant perfusion of extracellular solution was maintained using a BPS perfusion system (ALA, Westbury, N.Y.). Pipette solution contained (mM): KCl 145, MgCl2 1, EGTA 5, HEPES 10, MgATP 5 (pH 7.3); extracellular solution contained (mM): NaCl 140, KCl 3, CaCl2 2, MgCl2 1.5, HEPES 10, glucose 10 (pH 7.4). Current and voltage were recorded using an Axopatch-200A amplifier, filtered at 1 kHz and digitized using a DigiData 1322A with pClamp 9.2 software (Axon Instruments, Foster City, Calif.). […]
# [1] = target: T3, Kv4.2 A-type potassium channel (Homo sapiens, UniProt Q9NZV8); experiment: Channel activity in Kv4.2 stable line; type: cell-based
# T3 construct: expressed in transfected cells
# Protocol: as §1, with “cells. Stable lines expressing Kv2.1, hERG, and Kv4.2 were generated by standard protocols using pcDNA3.1 and maintained at complete medium supplemented with 500 μg/ml G418.” for “cells.”
# as §2
# KCNQ5 = target: T4, KCNQ5 (Homo sapiens, UniProt Q9NR82); experiment: Whole-cell voltage clamp of CHO cells expressing KCNQ5; type: cell-based; conditions: 10 μM ZnPy, extracellular
# T4 construct: expressed in transfected cells; host or cells: CHO cells
# Protocol: as §1, with “cells. Stable lines expressing Kv2.1, hERG, and Kv4.2 were generated by standard protocols using pcDNA3.1 and maintained at complete medium supplemented with 500 μg/ml G418.” for “cells.”
# as §2
# [2] = target: T5, human ether-a-go-go related gene (hERG) (Homo sapiens, UniProt Q12809); type: cell-based
# T5 construct: expressed in transfected cells
# Protocol: as §1, with “cells. Stable lines expressing Kv2.1, hERG, and Kv4.2 were generated by standard protocols using pcDNA3.1 and maintained at complete medium supplemented with 500 μg/ml G418.” for “cells.”
# as §2
# KCNQ2 L249A = target: T6, KCNQ2 L249A (Rattus norvegicus, UniProt O88943, L249A); experiment: Whole-cell recording of KCNQ2 L249A mutant; type: cell-based
# T6 construct: expressed in transfected cells
# Excerpt: (§4) FIG. 9. KCNQ2 point mutants selectively lose ZnPy sensitivity. […] Each mutation site was indicated based on the predicted transmembrane regions. Dashed line indicates the potentiation level of wt KCNQ2 channel in the absence of ZnPy. […] C. Modeling of the S5-pore-S6 region of KCNQ2.
# as §3
# (§5) Electrophysiological Recording—Standard whole-cell recording was used. Pipettes were pulled from borosilicate glass capillaries (TW150-4, World Precision Instruments, Sarasota, Fla.). When filled with the intracellular solution, the pipettes have resistances of […]. During the recording, constant perfusion of extracellular solution was maintained using a BPS perfusion system (ALA, Westbury, N.Y.). Pipette solution contained (mM): KCl 145, MgCl2 1, EGTA 5, HEPES 10, MgATP 5 (pH 7.3); extracellular solution contained (mM): NaCl 140, KCl 3, CaCl2 2, MgCl2 1.5, HEPES 10, glucose 10 (pH 7.4). Current and voltage were recorded using an Axopatch-200A amplifier, filtered at 1 kHz and digitized using a DigiData 1322A with pClamp 9.2 software (Axon Instruments, Foster City, Calif.). Series resistance compensation was also used and set to 60-80%.
# KCNQ2(L249A/L275A) = target: T7, KCNQ2(L249A/L275A) (Rattus norvegicus, UniProt O88943, L249A/L275A); experiment: Whole-cell recording of KCNQ2(L249A/L275A) mutant; type: cell-based
# T7 construct: expressed in transfected cells
# Excerpt: as §4, §3, §5
# [3] = Rat model of severe global ischemia; conditions: in vivo
# [4] = test system: lymphocytic leukemia cells; conditions: micromolar concentrations; cited from earlier work
# [5] = target: T8, Kv2.1 delay rectifier voltage-gated potassium channel (Homo sapiens, UniProt Q14721); experiment: Channel activity in Kv2.1 stable line; type: cell-based
# T8 construct: expressed in transfected cells
# Protocol: as §1, with “cells. Stable lines expressing Kv2.1, hERG, and Kv4.2 were generated by standard protocols using pcDNA3.1 and maintained at complete medium supplemented with 500 μg/ml G418.” for “cells.”
# as §2
# T8 sequence (Q14721 whole entry): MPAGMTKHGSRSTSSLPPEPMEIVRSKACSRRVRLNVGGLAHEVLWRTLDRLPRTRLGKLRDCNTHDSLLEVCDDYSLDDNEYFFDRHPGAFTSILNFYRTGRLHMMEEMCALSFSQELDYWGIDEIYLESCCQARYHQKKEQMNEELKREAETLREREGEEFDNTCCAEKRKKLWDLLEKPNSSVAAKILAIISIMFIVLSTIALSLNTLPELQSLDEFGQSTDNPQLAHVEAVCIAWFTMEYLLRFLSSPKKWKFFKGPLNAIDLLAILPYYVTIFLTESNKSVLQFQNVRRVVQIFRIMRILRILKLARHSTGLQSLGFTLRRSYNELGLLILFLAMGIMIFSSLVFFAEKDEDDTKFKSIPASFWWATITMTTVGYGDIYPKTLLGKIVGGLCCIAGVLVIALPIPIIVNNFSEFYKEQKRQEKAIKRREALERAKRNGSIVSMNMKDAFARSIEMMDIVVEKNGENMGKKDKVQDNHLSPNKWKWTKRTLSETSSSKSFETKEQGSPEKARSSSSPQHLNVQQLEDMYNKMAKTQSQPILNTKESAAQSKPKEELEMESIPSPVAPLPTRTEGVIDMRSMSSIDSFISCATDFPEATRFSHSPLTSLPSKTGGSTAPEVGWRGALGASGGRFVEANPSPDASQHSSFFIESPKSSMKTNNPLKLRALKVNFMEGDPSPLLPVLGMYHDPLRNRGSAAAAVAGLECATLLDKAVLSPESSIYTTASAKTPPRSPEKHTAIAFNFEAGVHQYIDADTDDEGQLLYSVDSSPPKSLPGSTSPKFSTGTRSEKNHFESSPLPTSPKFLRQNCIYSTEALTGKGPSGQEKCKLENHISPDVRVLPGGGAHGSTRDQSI
# T3 sequence (Q9NZV8 whole entry): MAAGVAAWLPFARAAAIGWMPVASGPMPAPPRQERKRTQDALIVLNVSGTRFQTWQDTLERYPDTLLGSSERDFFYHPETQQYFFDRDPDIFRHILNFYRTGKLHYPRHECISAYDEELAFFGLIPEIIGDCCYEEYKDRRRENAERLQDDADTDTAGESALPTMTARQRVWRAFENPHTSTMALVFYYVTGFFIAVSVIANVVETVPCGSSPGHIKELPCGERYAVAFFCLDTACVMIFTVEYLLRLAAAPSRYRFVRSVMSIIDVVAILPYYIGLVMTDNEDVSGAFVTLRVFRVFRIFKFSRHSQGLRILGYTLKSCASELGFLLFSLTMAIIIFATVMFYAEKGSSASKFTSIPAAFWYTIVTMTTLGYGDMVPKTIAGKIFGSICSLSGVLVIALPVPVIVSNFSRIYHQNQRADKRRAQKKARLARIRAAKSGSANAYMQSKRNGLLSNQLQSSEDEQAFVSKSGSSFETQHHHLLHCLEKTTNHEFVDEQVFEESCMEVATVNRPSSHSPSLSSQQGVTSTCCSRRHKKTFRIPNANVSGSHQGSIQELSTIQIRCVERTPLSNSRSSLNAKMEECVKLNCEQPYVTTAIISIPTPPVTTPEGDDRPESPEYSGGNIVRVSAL
# T5 sequence (Q12809 whole entry): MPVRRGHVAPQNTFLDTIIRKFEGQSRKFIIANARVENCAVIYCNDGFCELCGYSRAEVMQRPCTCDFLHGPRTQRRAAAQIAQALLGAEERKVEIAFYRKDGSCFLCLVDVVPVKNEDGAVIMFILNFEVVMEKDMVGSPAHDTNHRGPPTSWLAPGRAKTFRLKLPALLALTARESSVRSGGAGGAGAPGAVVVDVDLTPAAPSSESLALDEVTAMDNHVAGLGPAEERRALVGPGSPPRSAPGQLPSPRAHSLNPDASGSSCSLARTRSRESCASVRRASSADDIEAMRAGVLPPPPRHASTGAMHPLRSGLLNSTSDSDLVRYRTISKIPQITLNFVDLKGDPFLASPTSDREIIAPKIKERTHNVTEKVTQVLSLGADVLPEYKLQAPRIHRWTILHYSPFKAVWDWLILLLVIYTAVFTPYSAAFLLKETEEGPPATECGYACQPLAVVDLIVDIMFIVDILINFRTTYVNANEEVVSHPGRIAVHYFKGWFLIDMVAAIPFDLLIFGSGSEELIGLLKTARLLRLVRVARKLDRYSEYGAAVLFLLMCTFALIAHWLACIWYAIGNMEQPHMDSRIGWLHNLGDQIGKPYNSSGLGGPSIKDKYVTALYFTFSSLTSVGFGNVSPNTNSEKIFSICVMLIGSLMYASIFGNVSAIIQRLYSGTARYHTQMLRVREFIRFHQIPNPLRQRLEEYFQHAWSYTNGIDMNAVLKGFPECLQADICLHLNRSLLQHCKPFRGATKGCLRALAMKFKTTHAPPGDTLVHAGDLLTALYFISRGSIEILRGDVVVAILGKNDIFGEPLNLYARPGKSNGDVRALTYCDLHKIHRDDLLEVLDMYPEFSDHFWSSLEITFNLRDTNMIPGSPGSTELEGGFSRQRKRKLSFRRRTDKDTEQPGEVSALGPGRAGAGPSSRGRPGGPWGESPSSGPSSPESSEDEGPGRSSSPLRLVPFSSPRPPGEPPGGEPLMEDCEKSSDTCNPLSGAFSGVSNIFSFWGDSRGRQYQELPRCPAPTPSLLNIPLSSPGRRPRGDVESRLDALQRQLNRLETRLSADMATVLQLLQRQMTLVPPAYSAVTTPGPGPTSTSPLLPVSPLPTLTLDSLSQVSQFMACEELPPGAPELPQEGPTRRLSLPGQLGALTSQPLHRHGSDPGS
smiles,measurement,setting,value
"S=c1ccccn1[O][Zn][O]n1ccccc1=S [ZnPy, Zinc Pyrithione]",change of V1/2,KCNQ3,no change on V1/2
same,current potentiation,KCNQ3; extracellular,did not show any current potentiation; also recorded: has no effect on KCNQ3
same,fold current increase,KCNQ2(R207W),more than 3 fold
same,potentiation of channel activity,[1],did not potentiate
same,effect on channel activity,KCNQ5,became conductive upon ZnPy treatment
same,potentiation of channel activity,[2],did not potentiate
same,change in V1/2 caused by ZnPy,KCNQ2 L249A,significant reduction on changes in V1/2
same,V1/2 shift caused by ZnPy,KCNQ2(L249A/L275A),completely abolished the V1/2 shift
same,folds of current increase,"KCNQ2(L249A/L275A); +50 mV, ZnPy",8.6±2.2 folds
same,neuroprotection,[3],protection against cell loss in the selectively vulnerable zone of the CA1 region of the hippocampus
same,anti-apoptotic effect in vitro,[4],protected lymphocytic leukemia cells against colchicine-induced apoptosis
same,potentiation of channel activity,[5],did not potentiate
